From patent US6919043B2, “Method of sterilization for container, apparatus using therefor and heat treatment for container” (Dai Nippon Printing Co., Ltd., priority 2002, dated 2005) come the findings set out here.

In this assay the test system is Bacillus subtilis spore. Conditions: rinsing 3 sec, log(adhesion bacilli/survival bacilli).

Where two headings read alike, the source gives them in different places. Bounds are passed on as bounds.

Experimental: Sterilization process was performed, changing the conditions of a detail according to the following procedure for PET bottle (bottle made from a polyethylene terephthalate) with a capacity of 500 ml.
The hot blast 3 was supplied to the interior of the bottle per minute 0.1 m from the nozzle with a bore of 10 mm, and the preheating of the bottle was carried out. The temperature of hot blast was set as 105° C.-125° C. near the nose of the nozzle, and the amount of insertions into the bottle of the nozzle was set as 30 mm. Simultaneously, the hot blast of 85° C. was turned and sprayed on the lip portion of a bottle by the flow rate of 3 per minute 0.1 m from the nozzle with a bore of 50 mm. In addition, the number of nozzles for the lip portion heating was two to one bottle. The blasting time of the hot blast from each nozzle was set up in 3 seconds. The temperature in the bottle after the hot blast supplying had reached 50° C.
The bottle was left for 0.5-3.5 seconds after the mist supplying. Then, the nozzle was inserted into the bottle and hot blast was blown for 1 second. The bore of the nozzle, the amount of insertions of the nozzle, and the temperature and the flow rate of the hot blast were the same as the preheating.
The bottle was left for 1-3.5 second after hot blast blowing in. Then, the bottle was inverted and was inserted the a nozzle a nozzle with a bore of 6 mm in the interior, and the bottle was rinsed for aseptic water which is heated by 70° C. for 3 seconds. The flow rate of aseptic water was 8.5 L/min.
Moreover, a part of process was omitted when sterilization process was performed.
About each of each sterilization conditions, five bottles with the Bacillus subtilis spore of 103, 104, and 105 was sterilized, the trypto-soy bouillon medium was distributed aseptically in the bottle, and the existence of culture and sterilization was evaluated. The bacterial number of survivals was computed by the most probable number (MPN: most probable number) in probability theory from the test result in each sterilization conditions, and the following formula estimated the sterilization effect in quest of the opposite numeric value of the number of adhesion bacilli, and the number of survival bacilli.
Sterilization effect=log (the number of adhesion bacilli/the number of survival bacilli).

As to `OO` [hydrogen peroxide], the Sterilization effect is, setting by setting: (Condition 1: preheating 50 °C, mist 35 μl, leaving 3.5 sec, hot blast Yes, standing 1.0 sec) 6.5; (Condition 2: preheating 50 °C, mist 25 μl, leaving 3.5 sec, hot blast Yes, standing 1.0 sec) 5.5; (Condition 3: preheating 50 °C (neck portion not heated from the outside), mist 20 μl, leaving 3.5 sec, hot blast Yes, standing 1.0 sec) 5.0; (Condition 4: preheating 50 °C, mist 15 μl, leaving 3.5 sec, hot blast Yes, standing 1.0 sec) 4.5; (Condition 5: preheating 50 °C (neck portion heated from the exterior), mist 20 μl, leaving 3.5 sec, hot blast Yes, standing 1.0 sec) 5.5; (Condition 6: preheating No, mist 40 μl, leaving 3.5 sec, hot blast Yes, standing 1.0 sec) 3.0. Moreover, the Sterilization effect is less than 2 (Condition 7: preheating No, mist 20 μl, leaving 3.5 sec, hot blast Yes, standing 1.0 sec); 3.0 (Condition 8: preheating 50 °C, mist 30 μl, leaving 0.5 sec, hot blast Yes, standing 3.5 sec); less than 2 (Condition 9: preheating 50 °C, mist 20 μl, leaving 0.5 sec, hot blast Yes, standing 3.5 sec); 4.0 (Condition 10: preheating 50 °C, mist 20 μl, leaving 3.5 sec, hot blast No, standing 1.0 sec); 3.0 (Condition 11: preheating 50 °C, mist 15 μl, leaving 3.5 sec, hot blast No, standing 1.0 sec).
